In patent publication US9090589B2, “Specific nNOS inhibitors for the therapy and prevention of human melanoma” (priority 2011, dated 2015):
“Also recorded” adds a separate entry of the source. Read-outs that look alike come from different tables or passages of the source. Values belong to the molecule of their own block, whether it stands above or below them.

Assays:
[1] = target: nNOS (Rattus norvegicus (Rat), UniProt P29476); assay: biochemical; conditions: recombinant isozyme
[2] = system: nNOS; assay: biochemical; conditions: for Selectivity nNOS/eNOS: Ki(eNOS)/Ki(nNOS); for Selectivity nNOS/iNOS: Ki(iNOS)/Ki(nNOS)
[3] = system: wm3211; assay: Cytotoxicity in melanoma cell line; format: cell-based; conditions: Homo sapiens
[4] = system: Sk-Mel28; assay: Cytotoxicity in melanoma cell line; format: cell-based; conditions: Homo sapiens, SK-MEL-28
[5] = target: T1, iNOS (Mus musculus (Mouse), UniProt P29477); assay: biochemical
[6] = target: T2, eNOS (Bos taurus (Bovine), UniProt P29473); assay: biochemical
[7] = target: T1, iNOS; conditions: read-out: Ki iNOS; recombinant isozyme
[8] = target: T2, eNOS; conditions: read-out: Ki eNOS; recombinant isozyme
[9] = system: Lu1205 cells; assay: Total NOS activity, Ultrasensitive Colorimetric Assay; format: cell-based, human
[10] = system: nNOS expression in melanoma cells; assay: nNOS expression by immunoblotting in melanoma cells; format: cell-based, human; conditions: for induction of nNOS by DETA/NO or UVB radiation: as low as 1 μM
[11] = system: human melanoma cells; assay: MTT proliferation of melanoma cells under DETA/NO stress; format: cell-based
[12] = system: metastatic melanoma cells; assay: Matrigel invasion assay; format: cell-based, human
[13] = system: metastatic melanoma A375 cells in skin equivalents; assay: 3-dimensional skin reconstructs, melanoma growth; format: cell-based, human; conditions: 2 weeks
[14] = system: melanoma A375 cells; assay: L-arginine-induced intracellular NO, Griess reagent; format: cell-based, human
[15] = system: metastatic melanoma A375 cells; assay: Adhesion of A375 cells to fibroblast monolayer; format: cell-based, human; conditions: 2 μM, 1 hour
[16] = system: human primary melanocytes; assay: MTT proliferation of primary melanocytes; format: cell-based; conditions: 12-day period, DETA/NO exposure
[17] = system: nNOS expression in normal melanocytes; assay: nNOS expression in normal melanocytes; format: cell-based, human; conditions: DETA/NO
[18] = target: T3, iNOS (Homo sapiens (Human), UniProt P35228); format: biochemical
[19] = target: T3, iNOS; conditions: cited from earlier work
[20] = target: nNOS (Homo sapiens (Human), UniProt P29475); conditions: cited from earlier work

Ki [1]: 48 µM | Ki [5]: 609 µM | Ki [6]: 122 µM
Compound: Nc1cccc(C[C@H]2CN(Cc3ccccc3)C[C@H]2NCCCc2ccccc2)n1 [Compound 2, 6-(((3S,4S)-1-benzyl-4-((3-phenylpropyl)amino)pyrrolidin-3-yl)methyl)pyridin-2-amine]
Selectivity nNOS/eNOS [2]: 2.5 | Selectivity nNOS/iNOS [2]: 12.7 | IC50 [3]: 5 µM | IC50 [4]: 3.5 µM

Ki [1]: 0.21 µM | Ki [7]: 13.6 µM | Ki [8]: 116 µM
Compound: Cc1cc(N)nc(C[C@H]2CNC[C@H]2NCCNCc2cccc(C(F)(F)F)c2)c1 [Compound 3, N^1-((3S,4S)-4-((6-amino-4-methylpyridin-2-yl)methyl)pyrrolidin-3-yl)-N^2-(3-(trifluoromethyl)benzyl)ethane-1,2-diamine]
Selectivity nNOS/eNOS [2]: 552.4 | Selectivity nNOS/iNOS [2]: 64.8

Ki [1]: 0.098 µM | Ki [7]: 5.84 µM
Compound: Cc1cc(N)nc(C[C@H]2CNC[C@H]2NCCN)c1 [Compound 5, N^1-((3S,4S)-4-((6-amino-4-methylpyridin-2-yl)methyl)pyrrolidin-3-yl)ethane-1,2-diamine]

Compound: Cc1cc(N)nc(C[C@H]2CNC[C@@H]2NCCNCCc2cccc(F)c2)c1 [Compound 8, N^1-((3R,4S)-4-((6-amino-4-methylpyridin-2-yl)methyl)pyrrolidin-3-yl)-N^2-(3-fluorophenethyl)ethane-1,2-diamine]
NOS activity in metastatic Lu1205 cells ([9]; 1 μM): significantly reduced total NOS activities; also recorded: effectively inhibited | induction of nNOS by DETA/NO or UVB radiation ([10]; listed as Cpd 8): effectively inhibited the induction of nNOS | induction of nNOS by DETA/NO or UVB radiation ([10]; listed as cpd 8): inhibited nNOS expression | basal nNOS levels of melanoma cells ([10]; up to 200 μM): does not affect basal nNOS levels | DETA/NO-stimulated proliferation ([11]; co-treatment, after 3 days): significantly reversed | invasion potential elevated by L-arginine ([12]; A375 cells, co-treatment with L-arginine 2.87 mM): inhibited; also recorded: efficiently reversed | cell invasion potential elevated by DETA/NO ([12]; co-treatment with DETA/NO): reversed | melanoma overgrowth induced by L-arginine in skin reconstruct ([13]; 2 μM, L-arginine 2.87 mM): reversed the overgrowth induced by L-arginine | L-arginine-induced NO generation ([14]; as low as 1 μM, listed as cpd 8): inhibited; also recorded: efficiently inhibited NO production; also recorded: reduced | L-arginine-stimulated adhesion of A375 cells to fibroblast cells [15]: most potent inhibition of the relative adhesion

Compound: NCCN(CCN)[N+]([O-])=NO [DETA/NO, 1-[N-(2-Aminoethyl)-N-(2-ammonioethyl)amino]diazen-1-ium-1,2-diolate, reference compound]
proliferation of metastatic Lu1205 and SK-Mel28 cells ([11]; 100 μM): Marked stimulation of proliferation | proliferation of primary melanoma wm3211 cells ([11]; 100 μM): not significant | cell proliferation of primary melanocytes [16]: significantly stimulated | nNOS induction in melanocytes [17]: not evident

Compound: N=C(N)NCCC[C@H](N)C(=O)O [L-arginine, reference compound]
invasion potential of metastatic melanoma cells ([12]; 2.87 mM): markedly enhanced the invasion potential | melanoma growth in 3D skin equivalents ([13]; 2.87 mM): significantly promoted melanoma growth | intracellular NO level ([14]; incubation with L-arginine, A375 cells): increased

Compound: N=C(N)SCCc1cccc(CCSC(=N)N)c1 [PBIT, 1,3-phenylene-bis(1,2-ethanediyl)bisisothiourea]
iNOS selectivity over nNOS [18]: 1.5 fold | Ki [19]: 0.019 µM | Ki [20]: 0.029 µM

Compound: Cl.Cl.Cl.NCCCCNCCCN [Spermidine trihydrochloride (ST), Spermidine trihydrochloride, reference compound]
NOS activity in metastatic Lu1205 cells ([9]; 10 μM): comparable inhibition of NOS activity

Compound: COc1cc(/C=C/C(=O)CC(=O)/C=C/c2ccc(O)c(OC)c2)ccc1O [curcumin]
L-arginine-induced NO generation ([14]; up to 50 μM): not affected at all; also recorded: failed to inhibit

Compound: Oc1ccc(C=Cc2cc(O)cc(O)c2)cc1 [resveratrol]
L-arginine-induced NO generation ([14]; up to 50 μM): not affected at all; also recorded: failed to inhibit
